Experiment [1] concerns the target Atypical kinase COQ8A, mitochondrial (Homo sapiens, UniProt Q8NI60).
Another experiment has as its target T1, Ephrin type-B receptor 6 (Homo sapiens, UniProt O15197).
T1 sequence (O15197 whole entry): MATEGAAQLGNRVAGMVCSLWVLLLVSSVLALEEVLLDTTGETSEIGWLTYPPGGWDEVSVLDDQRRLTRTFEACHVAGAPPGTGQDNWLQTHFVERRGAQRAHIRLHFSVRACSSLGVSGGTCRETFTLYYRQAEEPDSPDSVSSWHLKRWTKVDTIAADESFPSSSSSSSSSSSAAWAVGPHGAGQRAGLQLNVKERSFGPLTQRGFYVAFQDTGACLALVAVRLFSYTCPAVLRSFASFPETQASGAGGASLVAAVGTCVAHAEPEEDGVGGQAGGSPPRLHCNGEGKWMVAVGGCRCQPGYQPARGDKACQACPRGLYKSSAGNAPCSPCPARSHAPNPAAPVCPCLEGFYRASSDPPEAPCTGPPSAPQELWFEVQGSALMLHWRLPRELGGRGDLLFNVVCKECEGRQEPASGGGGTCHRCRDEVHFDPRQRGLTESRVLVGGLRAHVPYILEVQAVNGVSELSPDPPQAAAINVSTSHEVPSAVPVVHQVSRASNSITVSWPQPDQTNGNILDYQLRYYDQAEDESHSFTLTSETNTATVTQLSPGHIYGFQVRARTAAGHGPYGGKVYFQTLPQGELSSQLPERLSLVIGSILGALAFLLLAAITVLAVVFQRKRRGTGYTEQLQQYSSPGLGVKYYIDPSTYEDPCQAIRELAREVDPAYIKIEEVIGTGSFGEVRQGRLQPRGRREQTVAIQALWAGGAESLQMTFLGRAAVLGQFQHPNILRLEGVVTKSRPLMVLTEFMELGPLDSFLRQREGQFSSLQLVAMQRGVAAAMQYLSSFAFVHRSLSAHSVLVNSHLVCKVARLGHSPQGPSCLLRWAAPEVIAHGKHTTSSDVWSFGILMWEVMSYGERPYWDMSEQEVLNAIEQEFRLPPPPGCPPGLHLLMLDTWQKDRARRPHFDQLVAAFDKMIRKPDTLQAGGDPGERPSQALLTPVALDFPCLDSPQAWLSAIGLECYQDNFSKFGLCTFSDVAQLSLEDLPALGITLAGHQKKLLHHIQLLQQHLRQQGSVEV

The target of experiment [2] is BMP-2-inducible protein kinase (Homo sapiens, UniProt Q9NSY1).
Experiment [3] has as its target Dual specificity protein kinase CLK1 (Homo sapiens, UniProt P49759).
In experiment [4] the target is Serine/threonine-protein kinase 10 (Homo sapiens, UniProt O94804).
The target in experiment [5] is Dual specificity mitogen-activated protein kinase kinase 2 (Homo sapiens, UniProt P36507).
For experiment [6], the target named is Ribosomal protein S6 kinase alpha-6 (Homo sapiens, UniProt Q9UK32).
The target of experiment [7] is DnaJ homolog subfamily A member 1 (Homo sapiens, UniProt P31689).
Experiment [8] has as its target RAC-alpha serine/threonine-protein kinase (Homo sapiens, UniProt P31749).
Experiment [9] addresses Glycogen synthase kinase-3 alpha (Homo sapiens, UniProt P49840).
Experiment [10] deals with T2, Dual specificity mitogen-activated protein kinase kinase 3 (Homo sapiens, UniProt P46734).
T2 sequence (P46734 whole entry): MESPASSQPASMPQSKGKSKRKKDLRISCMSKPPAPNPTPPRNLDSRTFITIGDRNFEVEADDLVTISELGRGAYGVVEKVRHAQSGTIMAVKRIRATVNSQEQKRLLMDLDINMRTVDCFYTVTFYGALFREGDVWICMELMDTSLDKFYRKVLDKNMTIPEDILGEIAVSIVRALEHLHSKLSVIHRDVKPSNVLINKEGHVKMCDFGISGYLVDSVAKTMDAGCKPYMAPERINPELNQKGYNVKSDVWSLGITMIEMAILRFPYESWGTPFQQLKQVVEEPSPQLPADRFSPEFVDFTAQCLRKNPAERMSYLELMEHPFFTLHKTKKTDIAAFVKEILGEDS

The next experiment has as its target Ephrin type-A receptor 5 (Homo sapiens, UniProt P54756).
Experiment [11] concerns the target Interleukin-1 receptor-associated kinase 1 (Homo sapiens, UniProt P51617).
Experiment [12] addresses T3, Electron transfer flavoprotein subunit beta (Homo sapiens, UniProt P38117).
T3 sequence (P38117 whole entry): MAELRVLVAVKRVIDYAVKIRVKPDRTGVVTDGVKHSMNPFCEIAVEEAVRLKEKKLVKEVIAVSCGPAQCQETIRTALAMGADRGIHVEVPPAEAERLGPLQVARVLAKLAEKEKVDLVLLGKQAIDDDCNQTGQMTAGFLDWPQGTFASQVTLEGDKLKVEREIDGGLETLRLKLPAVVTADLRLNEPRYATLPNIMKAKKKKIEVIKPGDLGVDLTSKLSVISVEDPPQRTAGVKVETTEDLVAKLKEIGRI

For experiment [13], the target named is T4, Membrane-associated tyrosine- and threonine-specific cdc2-inhibitory kinase (Homo sapiens, UniProt Q99640).
T4 sequence (Q99640 whole entry): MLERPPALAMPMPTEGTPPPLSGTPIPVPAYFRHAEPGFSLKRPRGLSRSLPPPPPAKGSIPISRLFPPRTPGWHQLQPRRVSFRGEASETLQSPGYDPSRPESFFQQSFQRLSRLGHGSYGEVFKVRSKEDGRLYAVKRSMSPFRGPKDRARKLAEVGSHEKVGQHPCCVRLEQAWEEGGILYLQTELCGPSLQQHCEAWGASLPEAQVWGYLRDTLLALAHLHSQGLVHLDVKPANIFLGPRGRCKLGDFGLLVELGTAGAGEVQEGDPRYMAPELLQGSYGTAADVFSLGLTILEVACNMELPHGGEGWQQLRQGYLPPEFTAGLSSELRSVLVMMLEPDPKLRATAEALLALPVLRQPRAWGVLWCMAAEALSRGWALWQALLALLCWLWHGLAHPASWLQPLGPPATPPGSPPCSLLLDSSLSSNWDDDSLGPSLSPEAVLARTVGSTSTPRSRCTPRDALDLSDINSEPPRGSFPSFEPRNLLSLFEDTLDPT

The target in experiment [14] is MAP kinase-activated protein kinase 2 (Homo sapiens, UniProt P49137).

Kd data for seven molecules are collected here from ChEMBL document CHEMBL3991601, “The target landscape of clinical kinase drugs” (Science, 2017).

The structures appear in SMILES notation. Activity calls are given as the source filed them. Cut-off read from the data, not from the text of the source, for most assays here: actives have a measured Kd and inactives only a lower limit.
Note: in the data inactive means no Kd found up to 30 µM.

Dual specificity protein kinase CLK1, sequence (P49759 whole entry): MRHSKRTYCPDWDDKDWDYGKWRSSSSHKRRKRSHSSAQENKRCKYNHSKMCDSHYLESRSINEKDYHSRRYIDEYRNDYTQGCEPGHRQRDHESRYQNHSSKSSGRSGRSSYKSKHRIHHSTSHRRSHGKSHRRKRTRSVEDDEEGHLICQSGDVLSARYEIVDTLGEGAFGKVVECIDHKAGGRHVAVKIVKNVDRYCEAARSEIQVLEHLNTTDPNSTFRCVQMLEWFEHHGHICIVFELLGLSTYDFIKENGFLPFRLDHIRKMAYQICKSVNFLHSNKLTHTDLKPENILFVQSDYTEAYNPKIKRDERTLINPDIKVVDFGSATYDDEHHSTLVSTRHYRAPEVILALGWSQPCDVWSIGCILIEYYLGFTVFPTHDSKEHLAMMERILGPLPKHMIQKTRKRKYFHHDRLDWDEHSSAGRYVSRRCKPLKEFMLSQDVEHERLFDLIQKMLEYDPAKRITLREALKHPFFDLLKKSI
RAC-alpha serine/threonine-protein kinase, sequence (P31749 whole entry): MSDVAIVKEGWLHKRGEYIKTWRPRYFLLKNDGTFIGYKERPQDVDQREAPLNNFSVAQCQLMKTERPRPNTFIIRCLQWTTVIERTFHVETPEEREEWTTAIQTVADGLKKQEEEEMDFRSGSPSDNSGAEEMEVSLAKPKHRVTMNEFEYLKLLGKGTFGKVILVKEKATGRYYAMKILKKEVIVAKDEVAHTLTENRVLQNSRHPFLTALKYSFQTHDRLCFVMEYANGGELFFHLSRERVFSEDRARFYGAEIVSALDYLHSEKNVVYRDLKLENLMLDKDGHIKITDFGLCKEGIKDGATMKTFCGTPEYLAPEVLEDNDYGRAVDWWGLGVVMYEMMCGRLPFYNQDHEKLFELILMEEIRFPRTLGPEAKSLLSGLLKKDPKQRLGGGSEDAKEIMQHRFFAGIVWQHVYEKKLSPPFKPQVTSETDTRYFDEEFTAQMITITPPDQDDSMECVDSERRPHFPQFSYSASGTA
Glycogen synthase kinase-3 alpha, sequence (P49840 whole entry): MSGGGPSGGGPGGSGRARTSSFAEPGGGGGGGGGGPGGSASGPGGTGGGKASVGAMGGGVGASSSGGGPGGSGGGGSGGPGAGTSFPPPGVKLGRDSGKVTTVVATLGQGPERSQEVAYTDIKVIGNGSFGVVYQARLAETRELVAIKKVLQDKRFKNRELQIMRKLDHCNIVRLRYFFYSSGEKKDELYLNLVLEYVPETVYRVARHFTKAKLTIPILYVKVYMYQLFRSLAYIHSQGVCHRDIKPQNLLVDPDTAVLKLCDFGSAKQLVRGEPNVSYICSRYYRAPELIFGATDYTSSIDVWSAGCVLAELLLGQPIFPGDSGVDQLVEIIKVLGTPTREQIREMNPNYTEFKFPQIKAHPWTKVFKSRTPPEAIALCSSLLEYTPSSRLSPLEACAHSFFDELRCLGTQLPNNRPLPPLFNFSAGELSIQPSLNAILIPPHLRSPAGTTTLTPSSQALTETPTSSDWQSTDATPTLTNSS
Dual specificity mitogen-activated protein kinase kinase 2, sequence (P36507 whole entry): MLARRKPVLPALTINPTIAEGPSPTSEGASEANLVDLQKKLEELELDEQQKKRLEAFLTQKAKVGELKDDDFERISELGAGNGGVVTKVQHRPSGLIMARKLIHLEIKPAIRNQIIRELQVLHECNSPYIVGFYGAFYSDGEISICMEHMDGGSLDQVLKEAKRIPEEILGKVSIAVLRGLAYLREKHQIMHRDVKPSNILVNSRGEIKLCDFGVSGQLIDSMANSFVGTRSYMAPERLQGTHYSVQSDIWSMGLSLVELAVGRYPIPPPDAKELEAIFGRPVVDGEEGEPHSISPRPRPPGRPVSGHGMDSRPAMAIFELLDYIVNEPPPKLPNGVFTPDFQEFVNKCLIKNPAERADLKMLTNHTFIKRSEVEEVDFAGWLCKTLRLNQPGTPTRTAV
Atypical kinase COQ8A, mitochondrial, sequence (Q8NI60 whole entry): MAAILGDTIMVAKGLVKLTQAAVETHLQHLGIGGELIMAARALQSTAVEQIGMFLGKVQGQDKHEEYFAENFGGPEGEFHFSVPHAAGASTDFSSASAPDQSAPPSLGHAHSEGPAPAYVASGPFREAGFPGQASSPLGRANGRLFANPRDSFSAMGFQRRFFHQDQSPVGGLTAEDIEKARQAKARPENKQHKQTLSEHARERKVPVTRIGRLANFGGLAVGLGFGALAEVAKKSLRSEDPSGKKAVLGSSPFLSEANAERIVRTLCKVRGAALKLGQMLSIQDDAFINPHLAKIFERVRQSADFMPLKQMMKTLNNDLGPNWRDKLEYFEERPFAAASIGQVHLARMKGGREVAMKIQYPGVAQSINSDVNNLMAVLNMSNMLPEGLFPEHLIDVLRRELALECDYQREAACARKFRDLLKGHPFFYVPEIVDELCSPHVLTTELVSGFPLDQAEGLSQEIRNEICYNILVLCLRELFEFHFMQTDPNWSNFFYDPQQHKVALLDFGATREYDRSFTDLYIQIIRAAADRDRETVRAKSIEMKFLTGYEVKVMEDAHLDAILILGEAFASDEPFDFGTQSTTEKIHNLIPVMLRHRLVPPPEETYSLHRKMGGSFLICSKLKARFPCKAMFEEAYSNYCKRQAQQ
Interleukin-1 receptor-associated kinase 1, sequence (P51617 whole entry): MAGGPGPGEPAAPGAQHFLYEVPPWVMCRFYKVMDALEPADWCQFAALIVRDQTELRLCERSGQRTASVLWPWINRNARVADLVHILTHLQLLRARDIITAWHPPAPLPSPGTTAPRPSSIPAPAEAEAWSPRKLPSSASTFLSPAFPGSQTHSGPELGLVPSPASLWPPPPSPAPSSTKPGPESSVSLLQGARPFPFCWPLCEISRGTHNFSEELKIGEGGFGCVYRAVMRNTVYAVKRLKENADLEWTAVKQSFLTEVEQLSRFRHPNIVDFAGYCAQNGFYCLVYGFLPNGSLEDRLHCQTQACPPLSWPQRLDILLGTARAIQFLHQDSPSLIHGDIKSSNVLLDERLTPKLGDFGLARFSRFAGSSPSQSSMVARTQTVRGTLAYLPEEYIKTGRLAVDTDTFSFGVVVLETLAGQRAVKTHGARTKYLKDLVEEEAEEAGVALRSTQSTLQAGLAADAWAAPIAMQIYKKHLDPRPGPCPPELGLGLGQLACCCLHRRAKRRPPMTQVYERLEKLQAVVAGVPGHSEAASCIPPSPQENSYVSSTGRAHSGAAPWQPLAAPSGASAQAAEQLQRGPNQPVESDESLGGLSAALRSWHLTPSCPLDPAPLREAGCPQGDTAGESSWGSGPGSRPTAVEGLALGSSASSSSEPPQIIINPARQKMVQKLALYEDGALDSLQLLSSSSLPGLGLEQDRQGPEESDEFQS
Ribosomal protein S6 kinase alpha-6, sequence (Q9UK32 whole entry): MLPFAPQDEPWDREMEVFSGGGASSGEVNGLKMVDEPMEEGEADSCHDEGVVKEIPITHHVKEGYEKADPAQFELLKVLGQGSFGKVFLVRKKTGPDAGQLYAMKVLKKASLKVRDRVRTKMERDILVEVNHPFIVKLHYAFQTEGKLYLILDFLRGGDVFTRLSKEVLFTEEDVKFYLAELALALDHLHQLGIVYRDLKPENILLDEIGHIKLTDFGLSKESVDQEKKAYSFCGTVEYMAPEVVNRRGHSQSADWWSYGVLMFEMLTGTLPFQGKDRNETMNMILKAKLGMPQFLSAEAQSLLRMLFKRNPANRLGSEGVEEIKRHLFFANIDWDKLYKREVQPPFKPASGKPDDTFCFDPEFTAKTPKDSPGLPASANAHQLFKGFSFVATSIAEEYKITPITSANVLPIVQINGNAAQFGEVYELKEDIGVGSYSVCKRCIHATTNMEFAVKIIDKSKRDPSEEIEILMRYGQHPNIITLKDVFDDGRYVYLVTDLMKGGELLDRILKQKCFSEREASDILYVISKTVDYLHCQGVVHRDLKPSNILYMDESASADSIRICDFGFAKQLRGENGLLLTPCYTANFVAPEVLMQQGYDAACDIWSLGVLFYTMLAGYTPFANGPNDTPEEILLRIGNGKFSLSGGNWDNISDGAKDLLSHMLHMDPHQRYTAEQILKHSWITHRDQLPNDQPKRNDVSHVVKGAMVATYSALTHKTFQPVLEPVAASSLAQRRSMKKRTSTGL
Ephrin type-A receptor 5, sequence (P54756 whole entry): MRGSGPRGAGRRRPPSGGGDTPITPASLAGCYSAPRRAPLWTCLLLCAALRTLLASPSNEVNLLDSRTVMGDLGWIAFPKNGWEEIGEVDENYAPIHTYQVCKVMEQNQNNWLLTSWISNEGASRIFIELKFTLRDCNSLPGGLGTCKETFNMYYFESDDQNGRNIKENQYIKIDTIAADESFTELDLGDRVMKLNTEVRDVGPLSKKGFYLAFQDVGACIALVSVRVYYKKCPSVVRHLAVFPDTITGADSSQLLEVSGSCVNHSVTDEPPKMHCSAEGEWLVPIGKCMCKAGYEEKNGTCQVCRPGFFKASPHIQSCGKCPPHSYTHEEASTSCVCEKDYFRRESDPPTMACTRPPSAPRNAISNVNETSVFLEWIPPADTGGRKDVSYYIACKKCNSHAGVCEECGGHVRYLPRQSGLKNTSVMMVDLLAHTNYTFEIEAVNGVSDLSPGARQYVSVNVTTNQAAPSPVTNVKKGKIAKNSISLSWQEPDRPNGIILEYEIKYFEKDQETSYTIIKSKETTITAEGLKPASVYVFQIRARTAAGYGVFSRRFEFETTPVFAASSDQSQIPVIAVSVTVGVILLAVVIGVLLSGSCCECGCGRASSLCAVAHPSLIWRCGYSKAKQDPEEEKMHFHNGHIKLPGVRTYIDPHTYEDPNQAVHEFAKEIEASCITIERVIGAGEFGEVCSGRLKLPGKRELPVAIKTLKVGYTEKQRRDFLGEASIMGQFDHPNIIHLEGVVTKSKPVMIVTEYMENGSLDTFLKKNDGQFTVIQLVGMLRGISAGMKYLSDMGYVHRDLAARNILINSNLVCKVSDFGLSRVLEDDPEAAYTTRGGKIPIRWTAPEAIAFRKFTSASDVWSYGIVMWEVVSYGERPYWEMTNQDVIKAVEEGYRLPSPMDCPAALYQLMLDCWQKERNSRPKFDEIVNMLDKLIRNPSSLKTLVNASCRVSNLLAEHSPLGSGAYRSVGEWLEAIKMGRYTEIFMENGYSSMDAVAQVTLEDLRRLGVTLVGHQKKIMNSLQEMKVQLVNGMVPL

One may read the Kd as a measure of binding affinity in units of concentration. With `CN1CC[C@@H](c2c(O)cc(O)c3c(=O)cc(-c4ccccc4Cl)oc23)[C@@H]1CO`, the Kd (in experiment [1]; on Ephrin type-B receptor 6; in experiment [2]; in experiment [3]; in experiment [4]; in [5]) was > 30 µM (inactive) each time. The Kd (in experiment [6]; in experiment [7]; in experiment [8]; in experiment [9]; in experiment [10]; at Ephrin type-A receptor 5) was > 30 µM (inactive) throughout. Also, the Kd in experiment [11], in experiment [12], in [13] and in experiment [14] was > 30 µM (inactive) throughout.

For the molecule `Cn1cc(-c2ccc3nnc(C(F)(F)c4ccc5ncccc5c4)n3n2)cn1` [JNJ-38877605], the Kd (in experiment [1]; at Ephrin type-B receptor 6; in experiment [2]; in experiment [3]; in experiment [4]; in experiment [5]) was > 30 µM (inactive) throughout. The Kd (in experiment [6]; in experiment [7]; in experiment [8]; in experiment [9]; in experiment [10]; at Ephrin type-A receptor 5) was > 30 µM (inactive) each time. For the same molecule, the Kd in [11], in [12], in experiment [13] and in experiment [14] was > 30 µM (inactive) in each case.

In the case of `Cc1ccc(-n2nc(C(C)(C)C)cc2NC(=O)NCc2cc(F)ccc2Oc2ccc3c(cnn3CCO)c2)cc1` [PEXMETINIB], the Kd (in [1]; on Ephrin type-B receptor 6; in experiment [2]; in [3]; in experiment [4]; in [5]) was > 30 µM (inactive) in each case. In addition, the Kd (in [6]; in experiment [7]; in [8]; in experiment [9]; in experiment [10]; at Ephrin type-A receptor 5) was > 30 µM (inactive) throughout. In addition, the Kd is 4.37 µM (active) in experiment [11], > 30 µM (inactive) in [12], > 30 µM (inactive) in [13] and 0.067 µM (active) in [14].

Regarding `COc1cc(N2CCC(N3CCN(C)CC3)CC2)ccc1Nc1ncnc(Nc2ccccc2S(=O)(=O)C(C)C)n1` [ASP-3026], the Kd in experiment [1] is > 30 µM (inactive); at Ephrin type-B receptor 6, > 30 µM (inactive); in experiment [2], > 30 µM (inactive); in experiment [3], > 30 µM (inactive); in [4], 23.7 µM (active); in experiment [5] it was > 30 µM (inactive). Besides, the Kd (in experiment [6]; in [7]; in [8]; in experiment [9]; in experiment [10]; on Ephrin type-A receptor 5) was > 30 µM (inactive) throughout. The Kd in experiment [11], in experiment [12], in experiment [13] and in [14] was > 30 µM (inactive) in each case.

As to `CNC(=O)c1ccc(-c2cnc3ncc(Cc4ccc5ncccc5c4)n3n2)cc1F` [CAPMATINIB], the Kd (in experiment [1]; at Ephrin type-B receptor 6; in experiment [2]; in [3]; in [4]; in experiment [5]) was > 30 µM (inactive) in each case. Moreover, the Kd (in experiment [6]; in experiment [7]; in [8]; in [9]; in experiment [10]; at Ephrin type-A receptor 5) was > 30 µM (inactive) in each case. Also, the Kd in [11], in [12], in [13] and in [14] was > 30 µM (inactive) in each case.

Consider `C[C@@H](Nc1cc(F)cc(F)c1)c1cc(C(=O)N(C)C)cc2c(=O)cc(N3CCOCC3)oc12` [AZD-8186], for which the Kd (in [1]; at Ephrin type-B receptor 6; in experiment [2]; in [3]; in experiment [4]; in [5]) was > 30 µM (inactive) throughout. In addition, the Kd (in experiment [6]; in experiment [7]; in experiment [8]; in experiment [9]; in experiment [10]; on Ephrin type-A receptor 5) was > 30 µM (inactive) throughout. Besides, the Kd in experiment [11], in experiment [12], in experiment [13] and in experiment [14] was > 30 µM (inactive) each time.

Turning to `CN1CCC(COc2cnc(-c3cccc(Cn4nc(-c5cccc(C#N)c5)ccc4=O)c3)nc2)CC1` [TEPOTINIB], the Kd (in experiment [1]; on Ephrin type-B receptor 6; in [2]; in experiment [3]; in experiment [4]; in experiment [5]) was > 30 µM (inactive) each time. Further, the Kd (in experiment [6]; in experiment [7]; in [8]; in experiment [9]; in [10]; at Ephrin type-A receptor 5) was > 30 µM (inactive) in each case. Also, the Kd in experiment [11], in experiment [12], in experiment [13] and in experiment [14] was > 30 µM (inactive) throughout.
